What is called IC50 is the concentration at which inhibition is half-maximal.

The target in the assay is human factor IXa (Homo sapiens (Human), UniProt P00740). Description: Determination of Inhibitory Activity Against Factor IXa. It counts as biochemical. As to conditions: Factor IXa enzyme assay human; read-out: FIXa IC50. As to the method: Inhibitory activity against factor IXa was tested using the substrate SPECTROFLUOR FIXa (american diagnostica inc.; 500 West Avenue, Stamford, Conn. 06902 USA; Pr. No. 299F) and human factor IXa (american diagnostica inc.; Pr. No. 449b). Test substances were dissolved in buffer A (50 mM α,α,α-tris(hydroxymethyl) methylamine (Tris), 100 mM NaCl, 5 mM CaCl2, 15% (v/v) ethylene glycol, pH 8.0) were mixed with factor IXa (0.1 μg/ml final concentration). The enzyme reaction was started by addition of SPECTROFLUOR FIXa (100 μM final concentration). After incubation for 60 minutes at room temperature, the reaction was stopped by the addition of 20% (v/v) acetic acid solution, and then the fluorescence value was measured (Excitation Wavelength: 355 nm, Emission Wavelength; 460 nm) in a microtiter plate reader (ARVO 1420 Multilabel Counter; PerkinElmer).
Sequence of human factor IXa (P00740 227-461): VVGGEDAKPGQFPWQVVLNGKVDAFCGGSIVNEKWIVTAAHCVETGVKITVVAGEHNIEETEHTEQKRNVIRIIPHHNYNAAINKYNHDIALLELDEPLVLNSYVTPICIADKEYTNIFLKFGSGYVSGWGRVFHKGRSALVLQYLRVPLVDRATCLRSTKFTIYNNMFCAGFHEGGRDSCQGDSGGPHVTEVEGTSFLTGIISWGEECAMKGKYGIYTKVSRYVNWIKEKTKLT
Sequence of human factor IXa (P00740 47-191 partner): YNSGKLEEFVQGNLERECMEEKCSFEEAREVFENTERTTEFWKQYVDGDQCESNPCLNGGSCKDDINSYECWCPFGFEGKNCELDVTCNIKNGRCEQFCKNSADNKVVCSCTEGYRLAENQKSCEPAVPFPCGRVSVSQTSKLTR
The IC50 was calculated from a dilution series of the test substance with the aid of the software, Symyx Assay Explorer (Symyx Technologies, Inc.).
Consider `Nc1noc2c(N3CC[C@@H](NC(=O)c4ccc(-n5cnc6ncncc65)cc4Cl)C3)ncc(Cl)c12` [Example 51, (R)—N-(1-(3-Amino-4-chloroisoxazolo[5,4-c]pyridin-7-yl)pyrrolidin-3-yl)-2-chloro-4-(7H-purin-7-yl)benzamide], for which the IC50 is at most 100 nM.

On to `Cc1ncn(-c2cnc(C(=O)N[C@@H]3CCN(c4ncc(Cl)c5c(N)noc45)C3)c(Cl)c2)n1` [Example 52, (R)—N-(1-(3-Amino-4-chloroisoxazolo[5,4-c]pyridin-7-yl)pyrrolidin-3-yl)-3-chloro-5-(3-methyl-1H-1,2,4-triazol-1-yl)picolinamide], for which the IC50 was in the range of 100 to 1000 nM.

As for `Nc1noc2c(N3CC[C@@H](NC(=O)c4ccc(-c5ccnc(CO)c5)cc4Cl)C3)ccc(Cl)c12` [Example 53, (R)—N-(1-(3-Amino-4-chlorobenzo[d]isoxazol-7-yl)pyrrolidin-3-yl)-2-chloro-4-(2-(hydroxymethyl)pyridin-4-yl)benzamide], the 50% inhibitory concentration (IC50) was at most 100 nM.

The values are drawn from patent US9969724B2, “Factor IXa inhibitors” (Merck Sharp & Dohme Corp., priority 2014, dated 2018).
